Patent US11154529B2, “Phosphaplatin liquid formulations” (Phosplatin Therapeutics Inc., priority 2016, dated 2021)

Assay: Ready-to-use formulation stability at 25° C./60% RH, 5 mg/mL (R,R)-pyrodach-2 in 10 mM Sodium Phosphate Buffer, 5.2 mM Sodium Pyrophosphate at pH 7.5, 10 mL vials
Type: physicochemical
Experimental: Stability data on the formulation with added pyrophosphate at 40° C./75% RH in Table 12 is even more dramatic. […] [table] [table] • Transfer 1419.6 mg±14.0 mg of dibasic sodium phosphate anhydrous to a 1-L volumetric flask. • Transfer 2298.5 mg±23.0 mg of tetrasodium pyrophosphate decahydrate into the same 1-L volumetric flask. • Fill flask to approximately 75% volume with sterile water for injection, swirl as needed to dissolve all solids. • Volumetrically transfer 8.0 mL of 1N NaOH to flask. • Dilute flask to volume with water and mix well. • Record the pH of final solution. This is the vehicle. • Determine the tare weight of a 500-mL compounding vessel with stir bar. • Transfer 2500.1 mg±25.0 mg of (R,R)-pyrodach-2 to the vessel. • Transfer 450.0 g±0.1 g of the vehicle to the vessel and stir to dissolve solids. • Determine the initial pH of the solution. • Slowly adjust the pH of the solution to 7.5±0.1 by adding additional N NaOH. • Determine the gross solution weight and dilute the solution weight to 500.0 g±0.1 g by adding additional vehicle into the compounding vessel. Density=1.00 g/mL. • Stir the final solution for an additional 5 minutes. • Determine the pH of final solution. • Pass the entire solution through a 0.22 μm PVDF Stericup filter into a sterile collection vessel. • Conduct the following in a laminar flow hood; fill 10-mL sterile tubing vials with 10 mL of solution, stoppered with a sterile Flurotec stopper, and crimp-capped with a flip-off seal. • Place vials in 40° C./75% RH and 25° C./60% RH stability chambers. HPLC method in Example 3 to monitor purity and impurities.

Q: What does the source list for `O=P1(O)OP(=O)(O)[O][Pt]2([NH][C@@H]3CCCC[C@H]3[NH]2)[O]1` (stereo partly drawn) [(R,R)-pyrodach-2, (R,R)-trans-1,2-cyclohexanediamine-(dihydrogenpyrophosphato)platinum(II)]?
A: Individual Related Substances RRT 0.28-0.29 (1 Month): 0.10%; Individual Related Substances RRT 0.50-0.51 (1 Month): 0.08%; Individual Related Substances RRT 0.58 (1 Month): 0.39%; Individual Related Substances RRT 0.73-0.74 (1 Month): 0.71%; Potency (Assay) (1 Month): 102.2%; Total Related Substances (1 Month): 1.3%; pH (1 Month): 7.6; Individual Related Substances RRT 0.28-0.29 (2 Months): 0.20%; Individual Related Substances RRT 0.50-0.51 (2 Months): 0.15%; Individual Related Substances RRT 0.58 (2 Months): 0.38%; Individual Related Substances RRT 0.73-0.74 (2 Months): 0.92%; Potency (Assay) (2 Months): 103.8%; Total Related Substances (2 Months): 1.6%; pH (2 Months): 7.6; Individual Related Substances RRT 0.28-0.29 (3 Months): 0.17%; Individual Related Substances RRT 0.50-0.51 (3 Months): 0.11%; Individual Related Substances RRT 0.58 (3 Months): 0.43%; Individual Related Substances RRT 0.73-0.74 (3 Months): 0.88%; Potency (Assay) (3 Months): 101.4%; Total Related Substances (3 Months): 1.6%; pH (3 Months): 7.6; Individual Related Substances RRT 0.28-0.29 (6 Months): 0.17%; Individual Related Substances RRT 0.50-0.51 (6 Months): 0.12%; Individual Related Substances RRT 0.58 (6 Months): 0.44%; Individual Related Substances RRT 0.73-0.74 (6 Months): 0.81%; Potency (Assay) (6 Months): 102.8%; Total Related Substances (6 Months): 1.5%; pH (6 Months): 7.6; Individual Related Substances RRT 0.28-0.29 (9 Months): 0.18%; Individual Related Substances RRT 0.50-0.51 (9 Months): 0.21%; Individual Related Substances RRT 0.58 (9 Months): 0.42%; Individual Related Substances RRT 0.73-0.74 (9 Months): 0.27%; Potency (Assay) (9 Months): 101.7%; Total Related Substances (9 Months): 1.20%; pH (9 Months): 7.6; Individual Related Substances PT-112 Dimer (Initial): 0.16%; Individual Related Substances RRT 0.28-0.29 (Initial): 0.14%; Individual Related Substances RRT 0.50-0.51 (Initial): 0.08%; Individual Related Substances RRT 0.58 (Initial): 0.34%; Individual Related Substances RRT 0.73-0.74 (Initial): 0.83%; Individual Related Substances RRT 0.92 (Initial): 0.05%; Individual Related Substances RRT 1.57 (Initial): 0.12%; Potency (Assay) (Initial): 102.0%; Total Related Substances (Initial): 1.7%; pH (Initial): 7.5
